Converted amounts (≈) assume the structure as drawn.
How the values were obtained:
E. coli RNAP core enzyme = E. coli RNAP core enzyme (Escherichia coli, UniProt P0A800+P0A8T7+P0A8V2); test: AS-MS; assay type: binding
RNAP = RNAP (Escherichia coli, UniProt P0A800+P0A8T7+P0A8V2); test: biochemical; design: species or system E. coli
[1] = molecular target: RNAP (wild-type, co-expressed) (Escherichia coli, UniProt P0A800+P0A8T7+P0A8V2); test: biochemical; design: species or system E. coli
[D516V]β-RNAP = [D516V]β-RNAP (Escherichia coli, UniProt P0A800+P0A8T7+P0A8V2, D516V); test: biochemical; design: species or system E. coli
[H526D]β-RNAP = [H526D]β-RNAP (Escherichia coli, UniProt P0A800+P0A8T7+P0A8V2, H526D); test: biochemical; design: species or system E. coli
[S531L]β-RNAP = [S531L]β-RNAP (Escherichia coli, UniProt P0A800+P0A8T7+P0A8V2, S531L); test: biochemical; design: species or system E. coli
[D622G]β′-RNAP = Fluorescence-detected RNAP inhibition assay; assay type: biochemical, E. coli; conditions: enzyme: [D622G]β′-RNAP vs RNAP (co-expressed)
RNAP (reconstituted) = RNAP (reconstituted) (Escherichia coli, UniProt P0A800+P0A8T7+P0A8V2); test: biochemical; assay type: biochemical, E. coli
Δω RNAP = assay type: biochemical, E. coli; conditions: enzyme: Δω RNAP vs RNAP (reconstituted)
[2] = test system: E. coli MB5746 (lpxC tolC); test: Broth microdilution MIC; assay type: cell-based; conditions: Escherichia coli
[3] = test system: E. coli D21f2tolC (rfa tolC); test: Broth microdilution MIC; assay type: cell-based; conditions: Escherichia coli
[4] = test system: E. coli D21f2tolC Rif^R-D516V (rfa tolC rpoB-D516V); test: Broth microdilution MIC; assay type: cell-based; conditions: Escherichia coli
[5] = test system: E. coli D21f2tolC Rif^R-H526D (rfa tolC rpoB-H526D); test: Broth microdilution MIC; assay type: cell-based; conditions: Escherichia coli
[6] = test system: E. coli D21f2tolC Rif^R-S531L (rfa tolC rpoB-S531L); test: Broth microdilution MIC; assay type: cell-based; conditions: Escherichia coli
[7] = test system: E. coli MB5746 RpoC (RNAP β′ subunit) D622G mutant; test: Broth microdilution MIC on MRL-436-resistant mutant; assay type: cell-based; conditions: RpoC D622G mutant of MB5746
[8] = test system: E. coli MB5746 RpoZ (RNAP ω subunit) Δ13–91 (frameshift) mutant; test: as above; assay type: cell-based; conditions: RpoZ Δ13–91 (frameshift) mutant of MB5746
[9] = test system: E. coli MB5746 RpoZ (RNAP ω subunit) Δ21–91 (frameshift) mutant; test: as above; assay type: cell-based; conditions: RpoZ Δ21–91 (frameshift) mutant of MB5746
[10] = test system: E. coli MB5746 RpoZ (RNAP ω subunit) Δ23–91 (frameshift) mutant; test: as above; assay type: cell-based; conditions: RpoZ Δ23–91 (frameshift) mutant of MB5746
[11] = test system: E. coli MB5746 RpoZ (RNAP ω subunit) Δ24–91 (frameshift) mutant; test: as above; assay type: cell-based; conditions: RpoZ Δ24–91 (frameshift) mutant of MB5746
[12] = test system: E. coli MB5746 RpoZ (RNAP ω subunit) Δ35–91 (frameshift) mutant; test: as above; assay type: cell-based; conditions: RpoZ Δ35–91 (frameshift) mutant of MB5746
[13] = test system: E. coli MB5746 RpoZ (RNAP ω subunit) Δ1–91 (deletion); test: Broth microdilution MIC on constructed ΔrpoZ strain; assay type: cell-based; conditions: RpoZ Δ1–91 (deletion) of MB5746
yeast invertase = yeast invertase (Saccharomyces cerevisiae, UniProt P00724); conditions: compound at 10 μM against 5μM invertase

**Q.** Which Kd (E. coli RNAP core enzyme) does the source give for CO[C@H]1/C=C/O[C@@]2(C)Oc3c(C)c(O)c4c(O)c(c(/C=N/N5CCN(C)CC5)c(O)c4c3C2=O)NC(=O)/C(C)=C\C=C\[C@H](C)[C@H](O)[C@@H](C)[C@@H](O)[C@@H](C)[C@H](OC(C)=O)[C@@H]1C [Rif, rifampin] here?
**A.** The Kd was less than 2000 nM.

**Q.** And the IC50 (RNAP)?
**A.** The IC50 was 20 nM.

**Q.** And the IC50 [1]?
**A.** Its IC50 is 30 nM.

**Q.** And the “IC50 ratio (IC50/IC50wild-type)” value ([1]; enzyme: RNAP (co-expressed))?
**A.** Its value is 1.

**Q.** What about the IC50 ([D516V]β-RNAP) of the same compound?
**A.** Its IC50 is 70000 nM.

**Q.** And the IC50 ([H526D]β-RNAP)?
**A.** The IC50 was greater than 100000 nM.

**Q.** And the IC50 ([S531L]β-RNAP)?
**A.** The IC50 was 80000 nM.

**Q.** And the “IC50 ratio (IC50/IC50wild-type)” value ([D622G]β′-RNAP)?
**A.** The value was 1.

**Q.** And the IC50 (RNAP (reconstituted))?
**A.** Its IC50 is 40 nM.

**Q.** And the “IC50 ratio (IC50/IC50wild-type)” value (RNAP (reconstituted); enzyme: RNAP (reconstituted))?
**A.** Its value is 1.

**Q.** What about the “IC50 ratio (IC50/IC50wild-type)” value (Δω RNAP) of the same compound?
**A.** The value was 0.5.

**Q.** And the MIC [2]?
**A.** Its MIC is 0.5 µg/mL (≈ 0.608 µM).

**Q.** What about the MIC [3] of the same compound?
**A.** Its MIC is 0.5 µg/mL (≈ 0.608 µM).

**Q.** And the MIC [4]?
**A.** Its MIC is 32 µg/mL (≈ 38.9 µM).

**Q.** And the MIC [5]?
**A.** The MIC was 128 µg/mL (≈ 156 µM).

**Q.** And the MIC [6]?
**A.** The MIC was 64 µg/mL (≈ 77.8 µM).

**Q.** What about the “resistance level (MIC/MICwild-type)” value [7] of the same compound?
**A.** Its value is 1.

**Q.** And the “resistance level (MIC/MICwild-type)” value [8]?
**A.** Its value is 1.

**Q.** What about the “resistance level (MIC/MICwild-type)” value [9] of the same compound?
**A.** Its value is 1.

**Q.** And the “resistance level (MIC/MICwild-type)” value [10]?
**A.** Its value is 1.

**Q.** What about the “resistance level (MIC/MICwild-type)” value [11] of the same compound?
**A.** Its value is 1.

**Q.** What about the “resistance level (MIC/MICwild-type)” value [12] of the same compound?
**A.** Its value is 1.

**Q.** And the “resistance level (MIC/MICwild-type)” value [13]?
**A.** Its value is 1.

**Q.** What about the “AS-MS signal against invertase (selectivity counter-screen)” value (yeast invertase) of the same compound?
**A.** Its value is “did not show an AS-MS signal”.
